Experimental data taken from patent US20180092908A1, “SMALL MOLECULE OXIDIZERS OF PDI AND THEIR USE” (THE TRUSTEES OF COLUMBIA UNIVERSITY IN THE CITY OF NEW YORK, priority 2015, published 2018).

Target: T1, PDIa (Homo sapiens, UniProt P07237)
T1 construct: made in house; host or cells: Escherichia coli BL21-Gold (DE3)
Assay: Size-exclusion buffer dialysis for reversibility of binding (fluorescence)
Conditions: PDIa 20 μM treated with LOC14 300 μM overnight, 10 kDa filter dialysis
Protocol: Prior to dialysis, fluorescence emission spectra were recorded from 315 nm-550 nm wavelength with excitation at 280 nm on a Tecan Infinite 200 microplate reader. Fluorescence readings were carried out in a 384-well low volume, black bottom plate. Each well contained 40 μl of either LOC14 (300 μM), PDIa (20 μM), or PDIa (20 μM) treated with LOC14 (300 μM) overnight. All samples were dissolved in buffer B (20 mM sodium phosphate buffer pH 7.8). After recording the initial fluorescence spectra, samples were then transferred to Amicon Ultra 10 kDa size exclusion filter spin columns for dialysis. […] This step was repeated three more times with fresh buffer B. 40 μl of the collected samples from the flow-through and the spin-column chamber were transferred to a new 384-well plate and the emission spectra recorded as described above.
To investigate the mode of binding further and to determine whether the binding was reversible or irreversible, the fluorescence of the LOC14-PDIa complex was analyzed before and after buffer dialysis. […] If LOC14 binds irreversibly to the protein, then the same fluorescence spectrum of the LOC14-PDIa complex would be seen before and after dialysis in the dialysis chamber and none in the buffer compartment, assuming the fluorescence of LOC14 was not dramatically altered upon binding. […]

T1 sequence (P07237 with tags, fused parts or gaps): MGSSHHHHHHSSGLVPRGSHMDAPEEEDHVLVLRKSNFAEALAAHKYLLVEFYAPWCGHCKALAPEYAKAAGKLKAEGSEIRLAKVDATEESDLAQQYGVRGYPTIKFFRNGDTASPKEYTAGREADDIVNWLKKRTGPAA

O=C(C1CC1)N1CCN(Cn2sc3ccccc3c2=O)CC1 [LOC14, 2-((4-(cyclopropanecarbonyl)piperazin-1-yl)methyl)benzo[d]isothiazol-3(2H)-one]
binding to PDIa reversible or irreversible: reversible
